Measured values: paper PMC9495423, “Identification of the Natural Steroid Sapogenin Diosgenin as a Direct Dual-Specific RORα/γ Inverse Agonist” (Biomedicines, 2022)

Tests used:
RORγ = biological target: T1, RORγ (Homo sapiens, UniProt P51449); experiment: RORγ-Gal4 luciferase reporter assay in HEK293 cells (inverse agonism); full-length RORγ-RORE assay IC50 […]; format: cell-based
T1 construct: gene RORC; also full-length RORγ transcript variant 1
T1 sequence (P51449 265-507 limits assumed): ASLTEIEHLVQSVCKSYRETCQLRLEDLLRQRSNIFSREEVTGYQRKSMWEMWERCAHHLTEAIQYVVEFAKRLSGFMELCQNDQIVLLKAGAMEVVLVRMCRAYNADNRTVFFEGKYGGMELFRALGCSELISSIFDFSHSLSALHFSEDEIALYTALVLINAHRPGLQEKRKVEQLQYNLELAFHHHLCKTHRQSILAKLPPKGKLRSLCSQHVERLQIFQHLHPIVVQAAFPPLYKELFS

RORα = biological target: T2, RORα (Homo sapiens, UniProt P35398); experiment: RORα-Gal4 luciferase reporter assay in HEK293 cells (inverse agonism); format: cell-based
T2 construct: gene RORA; RORα-Gal4
T2 sequence (P35398 1-523): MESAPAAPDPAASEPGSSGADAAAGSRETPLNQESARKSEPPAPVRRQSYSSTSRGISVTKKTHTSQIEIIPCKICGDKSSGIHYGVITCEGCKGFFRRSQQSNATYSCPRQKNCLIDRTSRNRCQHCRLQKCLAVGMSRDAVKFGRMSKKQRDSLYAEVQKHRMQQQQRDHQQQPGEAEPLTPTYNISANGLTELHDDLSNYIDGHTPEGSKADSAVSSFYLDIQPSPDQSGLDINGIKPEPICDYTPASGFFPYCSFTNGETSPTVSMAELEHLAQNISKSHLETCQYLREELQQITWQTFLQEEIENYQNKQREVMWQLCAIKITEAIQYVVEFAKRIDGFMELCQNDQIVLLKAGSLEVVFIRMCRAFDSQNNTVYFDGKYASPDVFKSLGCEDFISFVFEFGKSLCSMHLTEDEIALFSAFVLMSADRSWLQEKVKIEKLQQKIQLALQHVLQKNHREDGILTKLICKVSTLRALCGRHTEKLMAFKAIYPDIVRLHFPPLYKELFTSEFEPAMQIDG

SMILES: C[C@@H]1CC[C@@]2(OC1)O[C@H]1C[C@H]3[C@@H]4CC=C5C[C@@H](O)CC[C@]5(C)[C@H]4CC[C@]3(C)[C@H]1[C@@H]2C [diosgenin]
- IC50 (RORγ): 1730 nM
- IC50 (RORα): 2170 nM
